US20070272777A1 (priority 2005, published 2007)
Read-outs that look alike come from different tables or passages of the source.

How the values were obtained:
[1] = prepared by recrystallization from ethanol or heating hydrate at 80° C; according to WO 03/26659; cited from earlier work
[2] = disclosed in WO 05/058835; cited from earlier work
[3] = Text: FIG. 6B illustrates this method. […] The standard may be prepared by mixing specific amounts of Type C and Form II and determining the X-ray diffraction pattern. This method is also illustrated in FIGS. 6A and B which are used to calculate the ratio between the heights of the peaks in the known mixtures. […] A round aluminum sample holder with zero background was used. […] Running in spin/oscillate mode. All peak positions are reported with an error of ±0.2 degrees two theta.
[4] = molecular target: T1, serotonin 5-HT1A receptor (Homo sapiens, UniProt P08908); settings: cited from earlier work
T1 sequence (P08908 1-422): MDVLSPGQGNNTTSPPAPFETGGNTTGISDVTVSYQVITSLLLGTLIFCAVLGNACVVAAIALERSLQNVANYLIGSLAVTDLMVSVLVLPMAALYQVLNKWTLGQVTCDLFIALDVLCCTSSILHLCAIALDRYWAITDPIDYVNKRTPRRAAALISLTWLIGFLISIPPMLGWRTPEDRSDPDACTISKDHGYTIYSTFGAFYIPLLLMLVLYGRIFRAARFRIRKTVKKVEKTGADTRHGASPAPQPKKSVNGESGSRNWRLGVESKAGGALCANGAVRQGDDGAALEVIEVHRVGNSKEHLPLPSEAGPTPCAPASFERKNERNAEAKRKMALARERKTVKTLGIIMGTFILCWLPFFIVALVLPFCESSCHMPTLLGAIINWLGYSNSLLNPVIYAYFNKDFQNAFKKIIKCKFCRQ

[5] = molecular target: T2, serotonin 5-HT2C receptor (Homo sapiens, UniProt P28335); settings: cited from earlier work
T2 sequence (P28335 33-458): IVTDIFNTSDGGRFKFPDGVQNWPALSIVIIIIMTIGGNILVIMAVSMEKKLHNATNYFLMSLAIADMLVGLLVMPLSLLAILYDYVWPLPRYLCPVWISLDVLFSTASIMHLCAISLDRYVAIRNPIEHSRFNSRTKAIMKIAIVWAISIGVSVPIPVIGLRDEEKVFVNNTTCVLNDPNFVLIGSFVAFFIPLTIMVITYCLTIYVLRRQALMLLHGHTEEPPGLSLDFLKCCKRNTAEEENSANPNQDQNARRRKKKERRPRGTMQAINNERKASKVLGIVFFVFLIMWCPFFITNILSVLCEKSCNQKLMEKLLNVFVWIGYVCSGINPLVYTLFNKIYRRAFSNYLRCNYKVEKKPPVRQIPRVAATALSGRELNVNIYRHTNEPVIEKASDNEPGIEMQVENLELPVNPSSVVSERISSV

histamine H1 receptor = histamine H1 receptor (Homo sapiens, UniProt P35367); settings: cited from earlier work
histamine H1 receptor, sequence (P35367 whole entry): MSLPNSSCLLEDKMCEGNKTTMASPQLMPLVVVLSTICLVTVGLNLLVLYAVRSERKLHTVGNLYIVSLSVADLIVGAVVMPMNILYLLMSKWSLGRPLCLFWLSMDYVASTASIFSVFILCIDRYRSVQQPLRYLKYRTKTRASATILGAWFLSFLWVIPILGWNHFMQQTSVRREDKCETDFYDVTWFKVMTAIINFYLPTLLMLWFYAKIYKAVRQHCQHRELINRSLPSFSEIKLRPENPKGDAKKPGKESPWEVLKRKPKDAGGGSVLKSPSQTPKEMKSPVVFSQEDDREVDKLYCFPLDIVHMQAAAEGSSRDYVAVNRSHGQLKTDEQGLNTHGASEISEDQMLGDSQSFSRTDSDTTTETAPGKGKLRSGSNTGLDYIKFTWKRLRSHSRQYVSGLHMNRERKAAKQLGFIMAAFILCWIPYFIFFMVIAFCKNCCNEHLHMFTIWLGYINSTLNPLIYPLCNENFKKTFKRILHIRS

[6] = tested on: cholinergic muscarinic receptors; settings: cited from earlier work
[7] = molecular target: serotonin 5-HT2A receptor (Homo sapiens, UniProt P28223); settings: cited from earlier work
serotonin 5-HT2A receptor, sequence (P28223 whole entry): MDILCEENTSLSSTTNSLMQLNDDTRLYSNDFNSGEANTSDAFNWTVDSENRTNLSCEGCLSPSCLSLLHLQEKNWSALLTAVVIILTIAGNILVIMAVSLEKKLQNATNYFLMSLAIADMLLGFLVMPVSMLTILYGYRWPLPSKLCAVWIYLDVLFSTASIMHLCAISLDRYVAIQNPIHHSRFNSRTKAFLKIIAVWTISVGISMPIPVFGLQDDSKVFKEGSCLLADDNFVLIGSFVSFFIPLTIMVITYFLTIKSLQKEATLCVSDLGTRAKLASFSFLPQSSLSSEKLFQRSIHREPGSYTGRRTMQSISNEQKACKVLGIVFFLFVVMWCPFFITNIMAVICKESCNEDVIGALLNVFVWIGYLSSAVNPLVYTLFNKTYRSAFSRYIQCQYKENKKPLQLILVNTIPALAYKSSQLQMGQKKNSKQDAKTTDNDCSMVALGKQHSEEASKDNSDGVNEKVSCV

serotonin reuptake site = serotonin reuptake site (Homo sapiens, UniProt P31645); settings: cited from earlier work
serotonin reuptake site, sequence (P31645 whole entry): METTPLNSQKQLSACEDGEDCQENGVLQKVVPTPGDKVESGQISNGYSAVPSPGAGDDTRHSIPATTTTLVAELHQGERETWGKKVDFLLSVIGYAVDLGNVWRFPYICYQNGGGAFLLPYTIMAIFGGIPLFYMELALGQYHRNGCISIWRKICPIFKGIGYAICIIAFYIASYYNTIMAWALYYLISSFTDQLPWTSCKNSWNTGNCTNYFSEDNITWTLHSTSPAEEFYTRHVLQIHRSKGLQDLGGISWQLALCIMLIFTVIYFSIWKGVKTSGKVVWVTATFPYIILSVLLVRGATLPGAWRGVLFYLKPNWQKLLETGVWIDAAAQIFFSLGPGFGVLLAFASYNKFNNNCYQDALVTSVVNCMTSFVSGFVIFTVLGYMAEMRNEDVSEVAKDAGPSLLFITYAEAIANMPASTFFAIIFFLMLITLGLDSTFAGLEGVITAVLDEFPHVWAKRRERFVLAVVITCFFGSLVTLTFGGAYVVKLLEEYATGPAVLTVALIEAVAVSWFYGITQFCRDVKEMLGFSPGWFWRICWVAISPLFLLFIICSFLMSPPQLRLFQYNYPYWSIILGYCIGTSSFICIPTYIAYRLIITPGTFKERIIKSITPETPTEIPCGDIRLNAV

α1-adrenergic receptor = settings: cited from earlier work
[8] = Example 5 (comparative): centrifugal ball mill, 90 minutes at 580 rpm

## O=C1CCc2ccc(OCCCCN3CCN(c4cccc(Cl)c4Cl)CC3)cc2N1 [anhydride aripiprazole]
[1]
  hygroscopicity: significantly hygroscopic

## O=C1CCc2ccc(OCCCCN3CCN(c4cccc(Cl)c4Cl)CC3)cc2N1 [Aripiprazole Form II, 7-{4-[4-(2,3-dichlorophenyl)-1-piperazinyl]-butoxy}-3,4-dihydro-2(1H)-quinolinone]
[2]
  polymorphic transformation on heating: transformation to Type C
[3]; Example 1A: conical mill, 470 micron screen, 4710 rpm
  Type C content of milled sample by XRD: less than 5%
[3]; Example 1B: conical mill, 830 microns screen, 1315 rpm
  Type C content of milled sample by XRD: less than 5 % by weight
[3]; Example 2: ground with mortar and pestle about 1 min
  Type C content of milled sample by XRD: less than 5%
[3]; Example 3A: micronizer, Feeding Air 5.0 bars, Grinding Air 4.0 bars
  Type C content of milled sample by XRD: did not contain Type_C
[3]; Example 3B: micronizer, Feeding Air 3.0 bars, Grinding Air 2.0 bars
  Type C content of milled sample by XRD: did not contain Type_C
[3]; Example 3C: micronizer, 4 kg, Feeding Air 6.0 bars, Grinding Air 5.0 bars
  Type C content of milled sample by XRD: did not contain Type_C
[3]; Example 4A and 4B: frozen at −10° C. to −20° C. 24 hours, conical mill 470 microns/4710 or 830 microns/1315 rpm
  transformation to Type C by XRD: not transformed to Type C
[3]; [8]
  Type C content after milling by XRD: stark increase in the content of Type C
  crystallinity after milling by XRD: crystallinity of the sample decreased

## O=C1CCc2ccc(OCCCCN3CCN(c4cccc(Cl)c4Cl)CC3)cc2N1 [Aripiprazole, 7-{4-[4-(2,3-dichlorophenyl)-1-piperazinyl]-butoxy}-3,4-dihydro-2(1H)-quinolinone]
[4]
  affinity for serotonin 5-HT1A receptor: high affinity
[5]
  affinity for serotonin 5-HT2C receptor: moderate affinity
Histamine H1 receptor
  affinity for histamine H1 receptor: moderate affinity
[6]
  affinity for cholinergic muscarinic receptors: no appreciable affinity
[7]
  affinity for serotonin 5-HT2A receptor: high affinity
Serotonin reuptake site
  affinity for the serotonin reuptake site: moderate affinity
α1-adrenergic receptor
  affinity for α1-adrenergic receptor: moderate affinity
